From patent publication US9394264B2 (Receptos, Inc., priority 2009, dated 2016)
Where two headings read alike, the source gives them in different places.

Experiments:
Assay type in all cases: cell-based
S1P4 = biological target: T1, S1P4 (Homo sapiens, UniProt O95977); test: Specificity over other S1P receptors: S1P4-bla TANGO U2OS; conditions: without Forskolin, read-out: S1P4 agonist value (EC50)
T1 construct: Tango fusion (C); host or cells: U2OS (Tango, bla reporter)
T1 sequence (O95977 1-384): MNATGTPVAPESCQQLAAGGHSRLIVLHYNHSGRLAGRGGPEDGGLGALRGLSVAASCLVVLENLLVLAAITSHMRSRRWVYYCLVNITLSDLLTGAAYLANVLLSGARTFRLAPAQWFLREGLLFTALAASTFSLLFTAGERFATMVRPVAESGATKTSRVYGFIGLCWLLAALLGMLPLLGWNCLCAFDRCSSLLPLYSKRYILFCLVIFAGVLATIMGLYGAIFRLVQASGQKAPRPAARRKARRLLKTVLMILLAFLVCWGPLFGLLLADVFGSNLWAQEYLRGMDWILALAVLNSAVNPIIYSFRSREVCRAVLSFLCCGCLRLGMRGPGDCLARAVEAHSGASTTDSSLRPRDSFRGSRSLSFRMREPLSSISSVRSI
Method: (§1) Cells were seeded into 384-well black wall/clear bottom plates at 10^4 cells/well/19.5 μl assay media (DMEM-phenol free, 0.5% charcoal/dextran stripped serum, 2 mM glutamine, 0.1 mM NEAA, 1 mM Na-Pyruvate, 25 mM Hepes) and incubated for 18 hrs at 37° C. in 5% CO2. Dose response curves (10-point) were generated in 10 mM Hepes, 0.1% Pluronic F127, in the presence of Forskolin. Cells were treated with 0.5 μl compound in the presence of 2 μM Forskolin for 4 hrs at 37° C. The FRET-based β-lactamase fluorescent substrate (LiveBLAzer™-FRET B/G Loading Kit CC4-AM; Invitrogen) was prepared according to manufacturer's directions, and incubated with cells for 2 hrs at room temperature. Plates were read at Ex:410/Em:458 and Ex:410/Em:522, and the response ratio determined. Data was analyzed by non-linear regression to determine the EC50 for inhibition of Forskolin induced cAMP.
(§2) To assess compound specificity on other S1P receptors the following cell lines were used: S1P2 CRE-bla CHOK1, S1P3-Gα15 NFAT-bla HEK293T (Invitrogen), S1P4-bla TANGO U2OS (Invitrogen), S1P5-bla TANGO U2OS (Invitrogen). The same assay set up for S1P1 was used but without Forskolin. S1P4 and S1P5 assays were performed in FreeStyle Expression medium (Invitrogen). S1P5 cells were incubated for 48 hrs in prior to treatment with compound.

S1P3 = biological target: T2, S1P3 (Homo sapiens, UniProt Q99500); test: Specificity over other S1P receptors: S1P3-Gα15 NFAT-bla HEK293T; conditions: without Forskolin, read-out: S1P3 agonist value (EC50)
T2 construct: host or cells: NFAT-bla HEK293T
T2 sequence (Q99500 whole entry): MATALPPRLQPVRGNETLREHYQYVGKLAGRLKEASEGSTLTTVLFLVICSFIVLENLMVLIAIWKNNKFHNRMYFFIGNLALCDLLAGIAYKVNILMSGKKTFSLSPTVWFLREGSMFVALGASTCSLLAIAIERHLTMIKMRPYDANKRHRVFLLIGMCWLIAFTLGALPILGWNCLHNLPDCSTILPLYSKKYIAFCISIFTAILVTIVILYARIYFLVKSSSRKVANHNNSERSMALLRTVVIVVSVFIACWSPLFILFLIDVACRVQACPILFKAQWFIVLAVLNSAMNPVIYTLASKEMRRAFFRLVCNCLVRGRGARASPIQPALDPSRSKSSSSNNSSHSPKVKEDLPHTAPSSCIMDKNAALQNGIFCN
Method: as §1, §2

S1P1/EDG1 = S1P1/EDG1 (Homo sapiens, UniProt P21453); test: S1P1 CRE-bla CHOK1 reporter assay (inhibition of Forskolin induced cAMP); conditions: S1P1 CRE-bla CHOK1 cells, 2 μM Forskolin
Sequence of S1P1/EDG1 (P21453 whole entry): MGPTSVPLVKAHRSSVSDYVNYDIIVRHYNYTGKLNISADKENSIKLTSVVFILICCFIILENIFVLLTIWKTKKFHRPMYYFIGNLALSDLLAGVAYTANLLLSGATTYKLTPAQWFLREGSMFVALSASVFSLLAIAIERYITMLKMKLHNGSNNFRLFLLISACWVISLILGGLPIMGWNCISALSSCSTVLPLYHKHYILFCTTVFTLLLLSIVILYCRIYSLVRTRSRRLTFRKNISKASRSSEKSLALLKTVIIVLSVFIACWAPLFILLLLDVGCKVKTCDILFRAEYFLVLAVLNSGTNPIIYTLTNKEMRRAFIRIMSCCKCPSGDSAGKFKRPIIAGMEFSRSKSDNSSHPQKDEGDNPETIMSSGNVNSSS
Excerpt: A mammalian expression plasmid containing S1P1/EDG1 cloned into pcDNA3.1 was purchased from Missouri S&T cDNA Resource Centre. The nucleotide and amino acid sequence of human S1P1/EDG1 are published in Hla and Maciag (J Biol Chem, 265(1990), 9308-9313). S1P1/pcDNA3.1 was transfected into the CRE-bla CHO K1 (Invitrogen) cell line, and stable single cell clones were selected using standard techniques. Expression of functional S1P1/EDG1 receptor was confirmed by cell surface FACS with a S1P1 antibody (R&D Systems, clone 218713) and S1P-mediated inhibition of Forskolin induced cAMP.
as §1

S1P2 = biological target: T3, S1P2 (Homo sapiens, UniProt O95136); test: Specificity over other S1P receptors: S1P2 CRE-bla CHOK1; conditions: S1P2 CRE-bla CHOK1, without Forskolin; read-out: S1P2 agonist value (EC50)
T3 construct: expressed in transfected cells; host or cells: CRE-bla CHOK1
T3 sequence (O95136 whole entry, species assumed): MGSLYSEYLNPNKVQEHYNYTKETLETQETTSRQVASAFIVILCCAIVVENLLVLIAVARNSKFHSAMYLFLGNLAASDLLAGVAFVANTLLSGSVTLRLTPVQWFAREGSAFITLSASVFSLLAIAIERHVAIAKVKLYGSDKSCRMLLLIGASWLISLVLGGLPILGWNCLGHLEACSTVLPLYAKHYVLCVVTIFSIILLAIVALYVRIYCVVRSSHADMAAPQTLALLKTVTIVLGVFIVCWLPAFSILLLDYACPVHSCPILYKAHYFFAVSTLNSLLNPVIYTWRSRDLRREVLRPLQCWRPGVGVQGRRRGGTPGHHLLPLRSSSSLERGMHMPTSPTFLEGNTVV
Method: as §1, §2

S1P5 = biological target: T4, S1P5 (Homo sapiens, UniProt Q9H228); test: Specificity over other S1P receptors: S1P5-bla TANGO U2OS; conditions: without Forskolin, read-out: S1P5 agonist value (EC50)
T4 construct: Tango fusion (C); host or cells: U2OS (Tango, bla reporter)
T4 sequence (Q9H228 whole entry, the tested form may be a part): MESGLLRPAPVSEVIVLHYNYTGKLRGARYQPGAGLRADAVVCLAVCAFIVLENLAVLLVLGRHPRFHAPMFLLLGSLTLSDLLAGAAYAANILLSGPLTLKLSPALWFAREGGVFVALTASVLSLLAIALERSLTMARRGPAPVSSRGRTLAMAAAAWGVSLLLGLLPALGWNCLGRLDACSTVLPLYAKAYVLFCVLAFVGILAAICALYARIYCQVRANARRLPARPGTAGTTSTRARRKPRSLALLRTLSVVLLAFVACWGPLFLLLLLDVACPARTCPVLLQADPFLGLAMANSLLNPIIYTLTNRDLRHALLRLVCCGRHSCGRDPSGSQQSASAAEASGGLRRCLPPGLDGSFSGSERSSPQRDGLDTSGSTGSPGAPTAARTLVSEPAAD
Method: as §1, §2

[1] = read-out: S1P1 agonist value (EC50)
[2] = agonist activity range, read-out: S1P1 ACTIVITY

| Compound | EC50 (S1P1/EDG1; [2]) [nM] | other results |
| --- | --- | --- |
| COCCS(=O)(=O)N[C@H]1CCCc2c(-c3noc(-c4ccc(OC(C)C)c(C#N)c4)n3)cccc21 [Compound 33, (S)-N-(5-(5-(3-cyano-4-isopropoxyphenyl)-1,2,4-oxadiazol-3-yl)-1,2,3,4-tetrahydronaphthalen-1-yl)-2-methoxyethanesulfonamide] | 0.05 to 0.5 | EC50 (S1P4): 617 nM; EC50 (S1P3): > 10 µM; EC50 (S1P1/EDG1; [1]): 0.192 nM; EC50 (S1P2): > 10 µM; EC50 (S1P5): 260 nM |
| CC(C)Oc1ccc(-c2nc(-c3cccc4c3CCC[C@@H]4NC(=O)N3CC(O)C3)no2)cc1C#N [Compound 8, (S)-N-(5-(5-(3-cyano-4-isopropoxyphenyl)-1,2,4-oxadiazol-3-yl)-1,2,3,4-tetrahydronaphthalen-1-yl)-3-hydroxyazetidine-1-carboxamide] | 0.05 to 0.5 | EC50 (S1P4): > 10000 nM; EC50 (S1P3): > 10 µM; EC50 (S1P1/EDG1; [1]): 0.143 nM; EC50 (S1P2): > 10 µM; EC50 (S1P5): 109 nM |
| CC(C)Oc1ccc(-c2nc(-c3cccc4c3CCC[C@@H]4NS(=O)(=O)CCN(C)C)no2)cc1C#N [Compound 45, (S)-N-(5-(5-(3-cyano-4-isopropoxyphenyl)-1,2,4-oxadiazol-3-yl)-1,2,3,4-tetrahydronaphthalen-1-yl)-2-(dimethylamino) ethanesulfonamide] | 0.5 to 5 | – |
| CC(C)Oc1ccc(-c2nc(-c3cccc4c3CCC[C@H]4N)no2)cc1C#N [Compound 3, (R)-5-(3-(5-amino-5,6,7,8-tetrahydronaphthalen-1-yl)-1,2,4-oxadiazol-5-yl)-2-isopropoxybenzonitrile] | 0.5 to 5 | – |
| CC(C)Oc1ccc(-c2nc(-c3cccc4c3CCC[C@H]4NCCS(C)(=O)=O)no2)cc1C#N [Compound 48, (R)-2-isopropoxy-5-(3-(5-((2-(methylsulfonyl)ethyl)amino)-5,6,7,8-tetrahydronaphthalen-1-yl)-1,2,4-oxadiazol-5-yl)benzonitrile] | 0.05 to 0.5 | – |
| CC(C)Oc1ccc(-c2nc(-c3cccc4c3CCC[C@@H]4NC(=O)N3CC(C(=O)O)C3)no2)cc1C#N [Compound 9] | 0.05 to 0.5 | – |
| CC(C)Oc1ccc(-c2nc(-c3cccc4c3CCC[C@H]4NS(=O)(=O)CC(=O)O)no2)cc1C#N [Compound 34, (R)-2-(N-(5-(5-(3-cyano-4-isopropoxyphenyl)-1,2,4-oxadiazol-3-yl)-1,2,3,4-tetrahydronaphthalen-1-yl)sulfamoyl)acetic acid] | < 0.05 | – |
| CC(C)Oc1ccc(-c2ncc(-c3cccc4c3CCC4O)o2)cc1C#N (centres unmarked) [Compound 56, 5-(5-(1-hydroxy-2,3-dihydro-1H-inden-4-yl)oxazol-2-yl)-2-isopropoxybenzonitrile] | 0.5 to 5 | – |
| CC(C)Oc1ccc(-c2nc(-c3cccc4c3CCC[C@@H]4NC(=O)N3CCC[C@H](O)C3)no2)cc1C#N [Compound 17] | 0.5 to 5 | – |
| CC(=O)N[C@H]1CCCc2c(-c3noc(-c4ccc(OC(C)C)c(C#N)c4)n3)cccc21 [Compound 22, (S)-N-(5-(5-(3-cyano-4-isopropoxyphenyl)-1,2,4-oxadiazol-3-yl)-1,2,3,4-tetrahydronaphthalen-1-yl)acetamide] | 0.05 to 0.5 | – |
| CC(C)Oc1ccc(-c2nc(-c3cccc4c3CCC[C@H]4NC(=O)N3CCC(O)CC3)no2)cc1C#N [Compound 19] | 0.5 to 5 | – |
| CC(C)Oc1ccc(-c2nc(-c3cccc4c3CCC[C@H]4NS(=O)(=O)CCN3CC[C@@H](O)C3)no2)cc1C#N [Compound 47] | 0.05 to 0.5 | – |
| CC(C)Oc1ccc(-c2nc(-c3cccc4c3CCC[C@H]4NC(=O)N3CC(O)C3)no2)cc1C#N [Compound 7, (R)-N-(5-(5-(3-cyano-4-isopropoxyphenyl)-1,2,4-oxadiazol-3-yl)-1,2,3,4-tetrahydronaphthalen-1-yl)-3-hydroxyazetidine-1-carboxamide] | 0.05 to 0.5 | – |
| CC(C)Oc1ccc(-c2nc(-c3cccc4c3CCC[C@H]4NS(=O)(=O)CC(=O)N3CCC3)no2)cc1C#N [Compound 43] | < 0.05 | – |
| CCOc1ccc(Cc2nc(-c3cccc4c3CCC4NCCO)no2)cc1OCC (centres unmarked) [Compound 61, 2-((4-(5-(3,4-diethoxybenzyl)-1,2,4-oxadiazol-3-yl)-2,3-dihydro-1H-inden-1-yl)amino)ethanol] | > 5 | – |
| CCOc1ccc(Cc2nc(-c3cccc4c3CCC4O)no2)cc1OCC (centres unmarked) [Compound 60, 4-(5-(3,4-diethoxybenzyl)-1,2,4-oxadiazol-3-yl)-2,3-dihydro-1H-inden-1-ol] | > 5 | – |
| CC(C)Oc1ccc(-c2nc(-c3cccc4c3CCC[C@@H]4NS(=O)(=O)CC(=O)O)no2)cc1C#N [Compound 35, (S)-2-(N-(5-(5-(3-cyano-4-isopropoxyphenyl)-1,2,4-oxadiazol-3-yl)-1,2,3,4-tetrahydronaphthalen-1-yl)sulfamoyl)acetic acid] | < 0.05 | – |
| CC(=O)N[C@@H]1CCCc2c(-c3noc(-c4ccc(OC(C)C)c(C#N)c4)n3)cccc21 [Compound 21, (R)-N-(5-(5-(3-cyano-4-isopropoxyphenyl)-1,2,4-oxadiazol-3-yl)-1,2,3,4-tetrahydronaphthalen-1-yl)acetamide] | 0.05 to 0.5 | – |
| CC(C)Oc1ccc(-c2nc(-c3cccc4c3CCC[C@@H]4NS(=O)(=O)CCO)no2)cc1C#N [Compound 36, (S)-N-(5-(5-(3-cyano-4-isopropoxyphenyl)-1,2,4-oxadiazol-3-yl)-1,2,3,4-tetrahydronaphthalen-1-yl)-2-hydroxyethanesulfonamide] | < 0.05 | – |
| CC(C)Oc1ccc(-c2nc(-c3cccc4c3CCC[C@@H]4NS(N)(=O)=O)no2)cc1C#N [Compound 27, (S)-N-(5-(5-(3-cyano-4-isopropoxyphenyl)-1,2,4-oxadiazol-3-yl)-1,2,3,4-tetrahydronaphthalen-1-yl)sulfamide] | < 0.05 | – |
| CC(C)Oc1ccc(-c2nc(-c3cccc4c3CCC[C@@H]4NS(=O)(=O)CCN3CC[C@@H](O)C3)no2)cc1C#N [Compound 46] | 0.5 to 5 | – |
| CC(C)Oc1ccc(-c2nc(-c3cccc4c3CCC[C@H]4NS(C)(=O)=O)no2)cc1C#N [Compound 28, (R)-N-(5-(5-(3-cyano-4-isopropoxyphenyl)-1,2,4-oxadiazol-3-yl)-1,2,3,4-tetrahydronaphthalen-1-yl)methanesulfonamide] | 0.05 to 0.5 | – |
| CC(C)Oc1ccc(-c2nc(-c3cccc4c3CCC[C@H]4NS(=O)(=O)C3CC3)no2)cc1C#N [Compound 30] | 0.05 to 0.5 | – |
| CCOc1ccc(Cc2nc(-c3cccc4c3CCC4N[C@H](C)CO)no2)cc1OCC (some centres unmarked) [Compound 62] | > 5 | – |
| CC(C)Oc1ccc(-c2nc(-c3cccc4c3CCC[C@H]4NCC(=O)N3CCCC3)no2)cc1C#N [Compound 54, (R)-2-isopropoxy-5-(3-(5-((2-oxo-2-(pyrrolidin-1-yl)ethyl)amino)-5,6,7,8-tetrahydronaphthalen-1-yl)-1,2,4-oxadiazol-5-yl)benzonitrile] | 0.5 to 5 | – |
| CC(C)Oc1ccc(-c2nc(-c3cccc4c3CCC[C@@H]4NCCO)no2)cc1C#N [Compound 51, (S)-5-(3-(5-((2-hydroxyethyl)amino)-5,6,7,8-tetrahydronaphthalen-1-yl)-1,2,4-oxadiazol-5-yl)-2-isopropoxybenzonitrile] | 0.05 to 0.5 | – |
| COCCS(=O)(=O)N[C@@H]1CCCc2c(-c3noc(-c4ccc(OC(C)C)c(C#N)c4)n3)cccc21 [Compound 32, (R)-N-(5-(5-(3-cyano-4-isopropoxyphenyl)-1,2,4-oxadiazol-3-yl)-1,2,3,4-tetrahydronaphthalen-1-yl)-2-methoxyethanesulfonamide] | 0.05 to 0.5 | – |
| CC(C)Oc1ccc(-c2ncc(-c3cccc4c3CCC4NCCO)o2)cc1C#N (centres unmarked) [Compound 57, 5-(5-(1-(2-hydroxyethylamino)-2,3-dihydro-1H-inden-4-yl)oxazol-2-yl)-2-isopropoxybenzonitrile] | 0.5 to 5 | – |
